The text below walks through data of patent US7527938B2, “Methods for diagnosis and treatment of chronic immune diseases” (R.E.D. Laboratories N.V./S.A., priority 2001, dated 2009).

Where a SMILES comes first, the peptide text is derived from it. The star is where a group is joined. Cbz = O=C(OCc1ccccc1)*

The test deals with Stat-1-specific proteases in PBMC extracts. Kind of test: Effect of protease inhibitors on Stat-1 protein degradation in mixed PBMC extracts (Western blot). The format is biochemical, human. The following applies: healthy control PBMC extract mixed with CFS patient PBMC extract (RNase L ratio=3.0), 37 C, 15 minutes; inhibitor 50 micromolar final concentration; anti-Stat-1 Western blot (FIG. 4). The protocol: One of the two extracts used was from a healthy control (i.e., RNase L ratio<0.2; no protease present, detectable levels of Stat-1 protein). The other extract was from a patient with CFS (i.e., RNase L ratio>2.0; protease(s) present, no detectable level of Stat-1 protein).
Sixty (60) micrograms of PBMC extract from the healthy control was mixed with 60 micrograms of PBMC extract from a CFS patient and incubated at 37 C for 15 minutes in the presence of a) buffer only, b) DMSO (solvent for the protease inhibitors), c) Calpastatine, 50 micromolar final concentration, d) Calpain Inhibitor Type I, 200 micromolar final concentration, e) Calpain Inhibitor Type II, 200 micromolar final concentration, f) Caspase 3 Inhibitor Type II, 5 micromolar final concentration, or g) Proteasome Inhibitor (MG 132), 50 micromolar final concentration. All protease inhibitors above, as well as DMSO, were from Sigma Chemical Company.
After the 15 minute incubation, 2×SDS-PAGE gel sample dye was added and the sample heated to 95 C for five minutes to denature the proteins. The denatured samples were then subjected to standard SDS-PAGE using a 4 percent stacking gel and 10 percent separating gel. Transfer to PVDF membrane, Western blot with anti-Stat-1 antibody, and color development were performed exactly as described above.
In general terms: In western blotting, separated proteins are transferred to a membrane and probed.

As for `CC(C)C[C@@H](C=O)NC(=O)[C@H](CC(C)C)NC(=O)[C@H](CC(C)C)NC(=O)OCc1ccccc1` [MG 132] (Cbz-Leu-Leu-Leu-aldehyde), the “degradation of Stat-1 protein” value is “inhibited”.
